Data taken from ChEMBL document CHEMBL5505969, “Discovery of new piperaquine hybrid analogs linked by triazolopyrimidine and pyrazolopyrimidine scaffolds with antiplasmodial and transmission blocking activities” (Eur J Med Chem, 2024).
The source made the active and inactive calls. No cut-off for these calls is given here.

Assays:
Plasmodium berghei = test: Antiplasmodial activity against GFP-expressing Plasmodium berghei HSP70 infected in CD-1 mouse assessed as inhibition of ookinete formation at 10 uM measured after 22 hrs by giemsa staining based microscopic analysis; assay type: functional; settings: read-out: INH
Plasmodium falciparum [1] = test: Antiplasmodial activity against sorbitol-synchronized ring stage chloroquine sensitive Plasmodium falciparum 3D7 infected in erythrocytes measured after 48 hrs by SYBR green dye based fluorescence analysis; assay type: functional, organism-based; settings: 3D7, Erythrocyte
[2] = biological target: T1, Dihydroorotate dehydrogenase (quinone), mitochondrial (Plasmodium falciparum (isolate 3D7)) (UniProt Q08210); test: Inhibition of Plasmodium falciparum DHODH assessed as residual activity at 100 uM measured over 60 secs by DCIP dye based colorimetric assay relative to control; settings: time > 60.0 sec
T1 sequence (whole entry): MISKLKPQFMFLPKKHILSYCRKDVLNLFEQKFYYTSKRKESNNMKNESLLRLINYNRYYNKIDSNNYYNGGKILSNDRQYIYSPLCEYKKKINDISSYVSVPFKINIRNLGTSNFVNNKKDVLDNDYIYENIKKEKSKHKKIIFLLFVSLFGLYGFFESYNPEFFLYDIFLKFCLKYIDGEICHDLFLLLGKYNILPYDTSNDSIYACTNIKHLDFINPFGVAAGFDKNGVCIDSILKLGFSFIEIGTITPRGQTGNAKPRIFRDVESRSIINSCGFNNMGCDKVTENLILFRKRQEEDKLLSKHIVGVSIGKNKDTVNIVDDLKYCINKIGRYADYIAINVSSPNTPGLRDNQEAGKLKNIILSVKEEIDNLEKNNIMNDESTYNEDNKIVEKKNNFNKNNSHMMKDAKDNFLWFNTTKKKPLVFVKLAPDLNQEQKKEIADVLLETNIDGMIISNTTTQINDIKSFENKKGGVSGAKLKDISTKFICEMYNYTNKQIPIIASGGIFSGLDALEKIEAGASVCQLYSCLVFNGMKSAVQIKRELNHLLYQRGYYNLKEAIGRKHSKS

[3] = biological target: T1, Dihydroorotate dehydrogenase (quinone), mitochondrial (Plasmodium falciparum (isolate 3D7)); test: Inhibition of Plasmodium falciparum DHODH at 100 uM measured over 60 secs by DCIP dye based colorimetric assay relative to control; settings: time > 60.0 sec
[4] = Cytotoxicity against human HepG2 cells assessed as reduction in cell viability incubated for 72 hrs by MTT assay; assay type: toxicity, cell-based
Plasmodium falciparum [5] = test: Resistance index, ratio of IC50 for antiplasmodial activity against sorbitol-synchronized ring stage chloroquine resistant Plasmodium falciparum K1 infected in erythrocytes to IC50 for antiplasmodial activity against sorbitol-synchronized ring stage chloroquine sensitive Plasmodium falciparum 3D7 infected in erythrocytes; assay type: functional
Plasmodium falciparum [6] = test: Antiplasmodial activity against GFP expressing sorbitol-synchronized ring stage laboratory adapted Plasmodium falciparum 3D7HT assessed as reduction in infectivity by measuring inhibition of gametocyte formation at 10 uM treated for 72 hrs followed by replacement with fresh media without compound for 24 hrs and measured on day 4 by giemsa staining based microscopic analysis; assay type: functional
[7] = Selectivity index, ratio of CC50 for human HepG2 cells to IC50 for antiplasmodial activity against sorbitol-synchronized ring stage chloroquine sensitive Plasmodium falciparum 3D7 infected in erythrocytes; assay type: toxicity, cell-based; settings: Plasmodium falciparum 3D7 in erythrocytes, read-out: Ratio CC50/IC50
Plasmodium falciparum [8] = test: Antiplasmodial activity against sorbitol-synchronized ring stage chloroquine resistant Plasmodium falciparum K1 infected in erythrocytes measured after 48 hrs by SYBR green dye based fluorescence analysis; assay type: functional, organism-based; settings: K1, Erythrocyte
Plasmodium falciparum [9] = test: Antiplasmodial activity against Plasmodium falciparum infected in erythrocytes assessed as reduction in parasite growth at 500 nM measured until 24 hrs; assay type: functional, organism-based; settings: Erythrocyte
[10] = Ratio of IC50 for Plasmodium falciparum infected in erythrocytes measured after 24 hrs by SYBR green dye based fluorescence assay to IC50 for Plasmodium falciparum infected in erythrocytes measured after 72 hrs by SYBR green dye based fluorescence assay; assay type: functional, Erythrocyte
Plasmodium falciparum [11] = test: Resistance index, ratio of IC50 for antiplasmodial activity against sorbitol-synchronized ring stage MMV848 resistant Plasmodium falciparum 3D7 infected in erythrocytes to IC50 for antiplasmodial activity against sorbitol-synchronized ring stage chloroquine sensitive Plasmodium falciparum 3D7 infected in erythrocytes; assay type: functional
Plasmodium falciparum [12] = test: Antiplasmodial activity against sorbitol-synchronized ring stage MMV848 resistant Plasmodium falciparum 3D7 infected in erythrocytes measured after 48 hrs by SYBR green dye based fluorescence analysis; assay type: functional, organism-based; settings: 3D7, Erythrocyte
Plasmodium falciparum [13] = test: Antiplasmodial activity against sorbitol-synchronized ring stage chloroquine, mefloquine and pyrimethamine resistant Plasmodium falciparum Dd2 harboring N86F/M74I/ N75E/[…] mutation in MDR1 gene, N51I/C59R/S108N mutation in DHFR gene and S436F/A437G/A613S mutation in DHPS gene infected in erythrocytes measured after 48 hrs by SYBR green dye based fluorescence analysis; assay type: functional, organism-based; settings: Dd2, Erythrocyte
Plasmodium falciparum [14] = test: Antiplasmodial activity against sorbitol-synchronized ring stage atovaquone resistant Plasmodium falciparum TM90C6B harboring Y268S mutation in CYTB gene, Y184F mutation in MDR1 gene, N51I/C59R/S108N mutation in DHFR gene and S436F/A437G/A581G mutation in DHPS gene infected in erythrocytes measured after 48 hrs by SYBR green dye based fluorescence analysis; assay type: functional, organism-based; settings: Erythrocyte
Plasmodium falciparum [15] = test: Resistance index, ratio of IC50 for antiplasmodial activity against sorbitol-synchronized ring stage atovaquone resistant Plasmodium falciparum TM90C6B harboring Y268S mutation in CYTB gene, Y184F mutation in MDR1 gene, N51I/C59R/S108N mutation in DHFR gene and S436F/A437G/A581G mutation in DHPS gene infected in erythrocytes to IC50 for antiplasmodial activity against sorbitol-synchronized ring stage chloroquine sensitive Plasmodium falciparum 3D7 infected in erythrocytes; assay type: functional
Plasmodium falciparum [16] = test: Resistance index, ratio of IC50 for antiplasmodial activity against sorbitol-synchronized ring stage chloroquine, mefloquine and pyrimethamine resistant Plasmodium falciparum Dd2 harboring N86F/M74I/ N75E/[…] mutation in MDR1 gene, N51I/C59R/S108N mutation in DHFR gene and S436F/A437G/A613S mutation in DHPS gene infected in erythrocytes to IC50 for antiplasmodial activity against sorbitol-synchronized ring stage chloroquine sensitive Plasmodium falciparum 3D7 infected in erythrocytes; assay type: functional
Plasmodium falciparum [17] = test: Resistance index, ratio of IC50 for antiplasmodial activity against sorbitol-synchronized ring stage 2-(1,1-difluoroethyl)-5-methyl-N-(4-(pentafluoro-l6-sulfaneyl)phenyl)-[1,2,4]triazolo[1,5-a]pyrimidin-7-amine resistant Plasmodium falciparum Dd2 infected in erythrocytes to IC50 for antiplasmodial activity against sorbitol-synchronized ring stage chloroquine sensitive Plasmodium falciparum 3D7 infected in erythrocytes; assay type: functional
Plasmodium falciparum [18] = test: Antiplasmodial activity against sorbitol-synchronized ring stage 2-(1,1-difluoroethyl)-5-methyl-N-(4-(pentafluoro-l6-sulfaneyl)phenyl)-[1,2,4]triazolo[1,5-a]pyrimidin-7-amine resistant Plasmodium falciparum Dd2 infected in erythrocytes measured after 48 hrs by SYBR green dye based fluorescence analysis; assay type: functional, organism-based; settings: Dd2, Erythrocyte
Plasmodium falciparum [19] = test: Antiplasmodial activity against Plasmodium falciparum infected in erythrocytes assessed as induction of parasite death by measuring irreversible chromatin condensation with appearance of pyknotic nuclei at 300 nM measured after 24 hrs; assay type: functional, organism-based; settings: Erythrocyte

SMILES | Percent inhibition of ookinete formation at 10 µM (Plasmodium berghei) | IC50 (Plasmodium falciparum [1]) | Activity [2] | inhibition [3] | CC50 at 72 h [4] | inhibition at 10 µM (Plasmodium falciparum [6]) | selectivity ratio [7] | IC50 (Plasmodium falciparum [8]) | also measured
Cc1cc(NCCCCNc2ccnc3cc(Cl)ccc23)n2nc(C(F)(F)F)nc2n1 | 42% | 310 nM | 80.8% | < 50% | > 25000 nM | 43% | > 81 | 300 nM | Ratio IC50 (Plasmodium falciparum [5]): 1
CCc1nc(N)nc(N)c1-c1ccc(Cl)cc1 [PYRIMETHAMINE] | – | – | – | – | – | – | – | – | Activity (Plasmodium falciparum [9]): inactive; Ratio IC50 [10]: 3
Cc1cc(NCCCCCCCNc2ccnc3cc(Cl)ccc23)n2ncnc2n1 | 30% | 110 nM | 73.5% | < 50% | 16000 nM | 2% | 146 | 300 nM | Ratio IC50 (Plasmodium falciparum [11]): 1.1; IC50 (Plasmodium falciparum [12]): 120 nM; IC50 (Plasmodium falciparum [13]): 320 nM; IC50 (Plasmodium falciparum [14]): 200 nM; Ratio IC50 (Plasmodium falciparum [15]): 2.2; Ratio IC50 (Plasmodium falciparum [16]): 2.9; Ratio IC50 (Plasmodium falciparum [17]): 2.1; IC50 (Plasmodium falciparum [18]): 230 nM
Cc1cc(N2CCN(c3ccnc4cc(Cl)ccc34)CC2)n2nc(C(F)(F)F)nc2n1 | – | 7000 nM | 105% | < 50% | – | – | – | – | –
Cc1cc(N2CCN(c3ccnc4cc(Cl)ccc34)CC2)n2nc(C)cc2n1 | – | 4400 nM | 108% | < 50% | – | – | – | – | –
O=C1C(O)=C([C@H]2CC[C@H](c3ccc(Cl)cc3)CC2)C(=O)c2ccccc21 [ATOVAQUONE] | 78% | 1 nM | – | – | – | – | – | – | IC50 (Plasmodium falciparum [14]): > 1000 nM
Cc1cc(NCCCCCCCNc2ccnc3cc(Cl)ccc23)n2nc(C)nc2n1 | 0% | 120 nM | 78.8% | < 50% | 17000 nM | 85.8% | 142 | 210 nM | Ratio IC50 (Plasmodium falciparum [11]): 0.4; IC50 (Plasmodium falciparum [12]): 50 nM; IC50 (Plasmodium falciparum [13]): 170 nM; IC50 (Plasmodium falciparum [14]): 180 nM; Ratio IC50 (Plasmodium falciparum [15]): 1.5; Ratio IC50 (Plasmodium falciparum [16]): 1.4; Ratio IC50 (Plasmodium falciparum [17]): 1.3; IC50 (Plasmodium falciparum [18]): 150 nM
Cc1cc(NCCCNc2ccnc3cc(Cl)ccc23)n2nc(C)nc2n1 | 23% | 840 nM | 97% | < 50% | 110000 nM | 50% | 131 | 640 nM | Ratio IC50 (Plasmodium falciparum [5]): 0.8
Cc1cc(NCCCNc2ccnc3cc(Cl)ccc23)n2nc(C(F)(F)F)nc2n1 | – | 673 nM | 51.5% | < 50% | 113000 nM | – | 168 | 3000 nM | Ratio IC50 (Plasmodium falciparum [5]): 4.5
Cc1cc(N2CCN(c3ccnc4cc(Cl)ccc34)CC2)n2nc(C)nc2n1 | – | > 10000 nM | 93% | < 50% | – | – | – | – | –
COc1cc(NC(C)CCCN)c2ncccc2c1 (centres undefined) [PRIMAQUINE] | – | – | – | – | – | 86% | – | – | –
Cc1cc(NCCCCNc2ccnc3cc(Cl)ccc23)n2nc(C)nc2n1 | 0% | – | 92% | < 50% | > 25000 nM | – | > 100 | – | –
CCN(CC)CCCC(C)Nc1ccnc2cc(Cl)ccc12 (centres undefined) [CHLOROQUINE] | – | – | – | – | 398000 nM | – | – | – | –
C[C@H]1[C@H](OC(=O)CCC(=O)O)O[C@@H]2O[C@@]3(C)CC[C@H]4[C@H](C)CC[C@@H]1[C@@]24OO3 [ARTESUNATE] | – | – | – | – | – | – | – | – | Activity (Plasmodium falciparum [19]): Active; Ratio IC50 [10]: 1.04
Cc1cc(Nc2ccc(S(F)(F)(F)(F)F)cc2)n2nc(C(C)(F)F)nc2n1 [DSM-265] | – | 4 nM | < 10% | – | – | – | – | – | Ratio IC50 (Plasmodium falciparum [17]): 3; IC50 (Plasmodium falciparum [18]): 12 nM
Cc1cc(NCCCCNc2ccnc3cc(Cl)ccc23)n2nc(C)cc2n1 | 22% | – | 89.4% | < 50% | > 100000 nM | – | > 1570 | – | –
